In US6500842B1, “8-hydroxy-7-substituted quinolines as anti-viral agents” (Pharmacia & Upjohn Company, priority 1996, dated 2002):
Values joined by “and” are separate entries in the source; they are usually repeats but may differ in a detail not shown here. Equal entries are not always repeated.

target: T1, HCMV polymerase (Human cytomegalovirus, UniProt P08546); test: HCMV polymerase assay (scintillation proximity assay); type: biochemical; settings: Conc 1.00e−004 M; Table 2
T1 construct: made in house; host or cells: recombinant baculovirus-infected SF-9 cells
T1 sequence (P08546 whole entry): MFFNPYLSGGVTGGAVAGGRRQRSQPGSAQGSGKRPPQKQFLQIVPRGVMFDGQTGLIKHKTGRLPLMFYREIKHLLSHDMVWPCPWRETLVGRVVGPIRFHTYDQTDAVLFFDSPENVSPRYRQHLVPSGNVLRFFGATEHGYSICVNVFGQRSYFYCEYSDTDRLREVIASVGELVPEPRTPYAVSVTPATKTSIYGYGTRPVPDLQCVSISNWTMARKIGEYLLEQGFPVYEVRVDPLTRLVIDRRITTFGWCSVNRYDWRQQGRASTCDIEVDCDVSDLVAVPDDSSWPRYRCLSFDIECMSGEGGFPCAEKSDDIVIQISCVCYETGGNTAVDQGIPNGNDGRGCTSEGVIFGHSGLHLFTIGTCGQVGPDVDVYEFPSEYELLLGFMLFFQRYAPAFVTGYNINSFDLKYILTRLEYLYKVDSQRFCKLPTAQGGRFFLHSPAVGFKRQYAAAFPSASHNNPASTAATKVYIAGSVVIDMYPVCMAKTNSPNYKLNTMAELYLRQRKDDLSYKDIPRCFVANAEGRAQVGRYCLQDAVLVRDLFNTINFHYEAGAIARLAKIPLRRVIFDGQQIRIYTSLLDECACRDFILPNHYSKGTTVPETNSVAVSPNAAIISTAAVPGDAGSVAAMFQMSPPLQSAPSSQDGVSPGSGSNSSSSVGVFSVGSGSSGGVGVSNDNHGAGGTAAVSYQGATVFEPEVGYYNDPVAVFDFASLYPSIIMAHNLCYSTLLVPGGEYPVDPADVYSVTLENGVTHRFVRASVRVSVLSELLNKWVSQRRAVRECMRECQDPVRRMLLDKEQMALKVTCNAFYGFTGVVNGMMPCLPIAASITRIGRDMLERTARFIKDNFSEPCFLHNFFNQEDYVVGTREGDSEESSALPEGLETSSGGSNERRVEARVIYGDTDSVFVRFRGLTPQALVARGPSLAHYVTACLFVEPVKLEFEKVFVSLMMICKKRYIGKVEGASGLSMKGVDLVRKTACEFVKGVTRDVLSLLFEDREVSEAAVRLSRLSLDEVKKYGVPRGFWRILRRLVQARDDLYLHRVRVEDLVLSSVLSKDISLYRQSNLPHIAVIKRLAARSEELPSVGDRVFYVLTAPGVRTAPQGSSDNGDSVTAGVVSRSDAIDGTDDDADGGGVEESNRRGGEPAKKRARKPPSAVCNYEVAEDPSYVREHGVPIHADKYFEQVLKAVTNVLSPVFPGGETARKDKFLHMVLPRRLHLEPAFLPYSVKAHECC
Procedure: The HCMV polymerase assay is performed using a scintillation proximity assay (SPA) as described in several references, such as N. D. Cook, et al., Pharmaceutical Manufacturing International, pages 49-53 (1992); K. Takeuchi, Laboratory Practice, September issue (1992); U.S. Pat. No. 4,568,649 (1986); which are incorporated by reference herein. Reactions are performed in 96-well plates. The assay is conducted in 100 μl volume with 5.4 mM HEPES (pH 7.5), 11.7 mM KCl, 4.5 mM MgCl2, 0.36 mg/ml BSA, and 90 nM ^3H-dTTP. Assays are run with and without CHAPS, (3-[(3-Cholamidopropyl)-dimethylammonio]-1-propane-sulfonate) at a final concentration of 2 mM. HCMV is diluted in enzyme dilution buffer containing 50% glycerol, 250 mM NaCl, 10 mM HEPES (pH 7.5), 100 pg/ml BSA, and 0.01% sodium azide. The HCMV polymerase, which is expressed in recombinant baculovirus-infected SF-9 cells and purified according to literature procedures, is added at 10% (or 10 μl) of the final reaction volume, i.e., 100 μl. Compounds are diluted in 50% DMSO and 10 μl are added to each well. Control wells contain an equivalent concentration of DMSO. Unless noted otherwise, reactions are initiated via the addition of 6 nM biotinylated poly(dA)-oligo(dT) template/primer to reaction mixtures containing the enzyme, substrate, and compounds of interest. Plates are incubated in a 25° C. of 37° C. H2O bath and terminated via the addition of 40 μl/reaction of 0.5 M EDTA (pH 8) per well. Reactions are terminated within the time-frame during which substrate incorporation is linear and varied depending upon the enzyme and conditions used, i.e., 30 min. for HCMV polymerase. Ten μl of streptavidin-SPA beads (20 mg/ml in PBS/10% glycerol) are added following termination of the reaction. Plates are incubated 10 min. at 37° C., then equilibrated to room temperature, and counted on a Packard Topcount. Linear regressions are performed and IC50's are calculated using computer software. Results of the testing of compounds of the present invention in this assay are shown in Tables 1, 2, 5, 9, 10, 11, 13 (except for the last compound which was tested under modified conditions) and 14 below.

| % Inhib | Compound |
| --- | --- |
| 98.2% and 99.7% | O=S(=O)(NCc1ccccc1)c1cc(Cl)c2cccnc2c1O [Example 22, 5-Chloro-8-hydrxoy-N-(phenylmehtyl)-7-quinolinesulfonamide] |

same assay, conditions: Conc 1.30e−005 M; Table 2

| % Inhib | Compound |
| --- | --- |
| 68.9% and 78.3% | O=S(=O)(NCc1ccccc1)c1cc(Cl)c2cccnc2c1O [Example 22, 5-Chloro-8-hydrxoy-N-(phenylmehtyl)-7-quinolinesulfonamide] |

same assay, conditions: Conc 2.50e−005 M; Table 2

| % Inhib | Compound |
| --- | --- |
| 90.7% and 95.2% | O=S(=O)(NCc1ccccc1)c1cc(Cl)c2cccnc2c1O [Example 22, 5-Chloro-8-hydrxoy-N-(phenylmehtyl)-7-quinolinesulfonamide] |

same assay, conditions: Conc 5.00e−005 M; Table 2

| % Inhib | Compound |
| --- | --- |
| 96.7% and 98.6% | O=S(=O)(NCc1ccccc1)c1cc(Cl)c2cccnc2c1O [Example 22, 5-Chloro-8-hydrxoy-N-(phenylmehtyl)-7-quinolinesulfonamide] |

same assay, conditions: Conc 6.25e−006 M; Table 2

| % Inhib | Compound |
| --- | --- |
| 33.3% and 51.5% | O=S(=O)(NCc1ccccc1)c1cc(Cl)c2cccnc2c1O [Example 22, 5-Chloro-8-hydrxoy-N-(phenylmehtyl)-7-quinolinesulfonamide] |

same assay, conditions: Table 5; pol type CMV; read-out: IC50

| IC50 | Compound |
| --- | --- |
| < 3.1 µM and 0.6 µM | CCCCCCCNC(=O)c1ccc2ccc(/C=C/c3ccccc3)nc2c1O [Example 49, N-Heptyl-8-hydroxy-2-(2-phenylethenyl)-7-quinolinecarboxamide] |

same assay, conditions: Table 9; read-out: CMV pol Assay- IC50

| Compound | IC50 |
| --- | --- |
| COC(=O)[C@H](Cc1ccc(OCc2ccccc2)cc1)NC(=O)c1ccc2cccnc2c1O | 4.9 µM |
| O=C(N[C@@H](CO)C(=O)OCc1ccccc1)c1ccc2cccnc2c1O | 11.3 µM and 9.2 µM |
| CCCCCCCCCCCCCCCCCCNC(=O)c1ccc2cccnc2c1O | 20.7 µM |
| O=C(NCCSc1ccccc1)c1ccc2cccnc2c1O | 9.2 µM |
| CC1CCCC(NC(=O)c2ccc3cccnc3c2O)C1C (centres unmarked) | 8.4 µM |
| O=C(NCc1ccccc1C(F)(F)F)c1ccc2cccnc2c1O | 15.7 µM |
| O=C(NCCc1ccc(Cl)cc1Cl)c1ccc2cccnc2c1O | 9 µM |
| CCCCCCCCCNC(=O)c1ccc2cccnc2c1O | 2.2 µM |
| CCOC(=O)C(Cc1c[nH]c2ccccc12)NC(=O)c1ccc2cccnc2c1O (centres unmarked) | 24.6 µM and 29.4 µM |
| COC(=O)[C@H](Cc1ccc([N+](=O)[O-])cc1)NC(=O)c1ccc2cccnc2c1O | 10.8 µM |
| COC(=O)C(Cc1ccc(O)cc1)NC(=O)c1ccc2cccnc2c1O (centres unmarked) | 12.1 µM |
| O=C(NC1(CO)CCCC1)c1ccc2cccnc2c1O | 6.6 µM |
| O=C(NCCc1c[nH]c2ccccc12)c1ccc2cccnc2c1O | 11.1 µM |
| O=C(NCc1cccc2ccccc12)c1ccc2cccnc2c1O | 3.7 µM |
| O=C(NCc1c(Cl)cccc1Oc1ccccc1)c1ccc2cccnc2c1O | 3.1 µM |
| CCCCCCCNC(=O)c1ccc2cccnc2c1O | 5.2 µM |
| O=C(NCCSc1cc(C(F)(F)F)nc2ccccc12)c1ccc2cccnc2c1O | 12.6 µM |
| CC1(C)C2CCC(CNC(=O)c3ccc4cccnc4c3O)C1C2 (centres unmarked) | 1.5 µM |
| O=C(NCc1ccccc1Sc1ccccc1CO)c1ccc2cccnc2c1O | 9.4 µM |
| O=C(NC1CCCCCC1)c1ccc2cccnc2c1O | 23.8 µM |
| O=C(NCc1ccc(C(F)(F)F)cc1)c1ccc2cccnc2c1O | 13.7 µM |
| O=C(NCCC(c1ccccc1)c1ccccc1)c1ccc2cccnc2c1O | < 1.5 µM |

The next lines start with the values.

| IC50 | Compound |
| --- | --- |
| 13.2 µM | O=C(NC1CCc2ccccc21)c1ccc2cccnc2c1O (centres unmarked) |
| 6.7 µM | O=C(NCCc1ccc(Cl)cc1)c1ccc2cccnc2c1O |
| 22.2 µM | CC(NC(=O)c1ccc2cccnc2c1O)c1ccccc1 (centres unmarked) |
| 14.6 µM | O=C(NCc1cccc(Cl)c1Cl)c1ccc2cccnc2c1O |
| 22.3 µM | O=C(NCc1cc(F)ccc1F)c1ccc2cccnc2c1O |
| 19.7 µM | O=C(NCc1ccccc1Cl)c1ccc2cccnc2c1O |
| < 3.1 µM and 2.4 µM and 10.8 µM | C[C@@H](NC(=O)c1ccc2cccnc2c1O)c1cccc2ccccc12 |
| 23.2 µM | Cc1ccccc1CNC(=O)c1ccc2cccnc2c1O |
| 7.8 µM | O=C(NCC(O)c1ccccc1)c1ccc2cccnc2c1O (centres unmarked) |
| 24.5 µM | C[C@@H](NC(=O)c1ccc2cccnc2c1O)c1ccccc1 |
| 16.8 µM | Cc1ccc(CCNC(=O)c2ccc3cccnc3c2O)cc1 |
| 5.6 µM | O=C(NCc1ccc(Cl)c(Cl)c1)c1ccc2cccnc2c1O |

same assay, conditions: Table 10; CMV pol Assay; read-out: IC50

| Compound | IC50 [µM] |
| --- | --- |
| O=C(Nc1ccc(Sc2ccc([N+](=O)[O-])cc2)cc1)c1ccc2cccnc2c1O | > 100 |
| O=C(Nc1ccc(OCc2ccccc2)cc1)c1ccc2cccnc2c1O | 4.1 |
| Cc1noc(NS(=O)(=O)c2ccc(NC(=O)c3ccc4cccnc4c3O)cc2)c1C | 90 |

Now from value to compound:

| IC50 [µM] | Compound |
| --- | --- |
| 5.9 | O=C(Nc1cccc(I)c1)c1ccc2cccnc2c1O |
| 22.4 | COc1ccc(NC(=O)c2ccc3cccnc3c2O)c([N+](=O)[O-])c1 |
| 1.7 | O=C(Nc1cccc(Cl)c1)c1ccc2cccnc2c1O |
| 14 | O=C(Nc1cc(C(F)(F)F)ccc1Cl)c1ccc2cccnc2c1O [drawing 221] |
| 10.3 | O=C(Nc1cccc2cccnc12)c1ccc2cccnc2c1O |
| 12.2 | Cc1cccc(NC(=O)c2ccc3cccnc3c2O)c1 [drawing 224] |
| 21.6 | O=C(Nc1ccc(Br)cn1)c1ccc2cccnc2c1O |
| 2.9 | O=C(Nc1cccc(OCc2ccccc2)c1)c1ccc2cccnc2c1O |
| 10.2 | Cc1cc(F)ccc1NC(=O)c1ccc2cccnc2c1O |
| 9.4 | O=C(Nc1ccccc1Cl)c1ccc2cccnc2c1O |
| 3.7 | O=C(Nc1ccc(CO)cc1)c1ccc2cccnc2c1O |
| 3.6 | Cc1cc(Cl)ccc1NC(=O)c1ccc2cccnc2c1O |
| 8.2 | CSc1ccccc1NC(=O)c1ccc2cccnc2c1O |
| 32.7 | O=C(Nc1ccc(Cl)c(Cl)c1)c1ccc2cccnc2c1O |
| 82.9 | O=C(Nc1ccc(F)c(F)c1)c1ccc2cccnc2c1O |
| 30.5 | O=C(Nc1cc(Cl)c(O)c(Cl)c1)c1ccc2cccnc2c1O |

| IC50 [µM] | Compound |
| --- | --- |
| 13.4 | Cc1ccccc1NC(=O)c1ccc2cccnc2c1O |
| 16.9 | O=C(Nc1cccc(F)c1)c1ccc2cccnc2c1O |
| 25.5 | CSc1cccc(NC(=O)c2ccc3cccnc3c2O)c1 |
| 27.9 | O=C(Nc1ccccc1-n1cccc1)c1ccc2cccnc2c1O |
| 6.9 | O=C(Nc1ccc(Br)cc1F)c1ccc2cccnc2c1O |
| 7 | COc1ccc(Cl)c(NC(=O)c2ccc3cccnc3c2O)c1 |
| 14.7 | Cc1ccc(F)cc1NC(=O)c1ccc2cccnc2c1O [drawing 222] |
| 27.4 | O=C(Nc1cc(F)c(F)cc1F)c1ccc2cccnc2c1O |
| > 100 | O=C(Nc1ccccc1[N+](=O)[O-])c1ccc2cccnc2c1O |
| 30.1 | COc1ccc(NC(=O)c2ccc3cccnc3c2O)cc1 |
| 9.2 | O=C(Nc1cccc(Br)c1)c1ccc2cccnc2c1O |
| 14.5 | O=C(Nc1ccc2cccc(O)c2n1)c1ccc2cccnc2c1O |
| 16.4 | O=C(Nc1ccc2c(c1)OCO2)c1ccc2cccnc2c1O |
| 7.3 | CCc1ccccc1NC(=O)c1ccc2cccnc2c1O |
| 7 | Cc1cccc(NC(=O)c2ccc3cccnc3c2O)c1 [drawing 284] |

same assay, conditions: Table 11; read-out: CMV pol Assay IC50

| IC50 [µM] | Compound |
| --- | --- |
| 13.9 | CC(C)(C)OC(=O)[C@@H]1CCCN1c1nnc(NC(=O)c2ccc3cccnc3c2O)s1 |
| 93.2 | O=C(Nc1nnc(Br)s1)c1ccc2cccnc2c1O [drawing 304] |
| 4.5 | CC(C)(C)OC(=O)[C@H](Cc1ccc(OC(C)(C)C)cc1)Nc1nnc(NC(=O)c2ccc3cccnc3c2O)s1 |
| 8.5 | O=C(Nc1nnc(N[C@@H](Cc2c[nH]c3ccccc23)C(=O)O)s1)c1ccc2cccnc2c1O |
| 4.7 | CC(C)(C)OC(=O)C(Nc1nnc(NC(=O)c2ccc3cccnc3c2O)s1)c1cccc2c1OCO2 (centres unmarked) |
| < 3.1 | CC(C)(C)OC(=O)[C@H](CCCCNC(=O)OCc1ccccc1)Nc1nnc(NC(=O)c2ccc3cccnc3c2O)s1 |
| 7.1 | O=C(Nc1nnc(NCc2ccc3c(c2)OCO3)s1)c1ccc2cccnc2c1O |

same assay, conditions: Table 13; read-out: IC50

| IC50 [µM] | Compound |
| --- | --- |
| 1.7 | O=C(NC1=NC(=O)C(Cc2ccc(Cl)cc2)S1)c1ccc2cccnc2c1O (centres unmarked) |
| 2.6 | O=C(NCc1ccc(Cl)cc1)c1cc([N+](=O)[O-])c2cccnc2c1O |
| 5.2 | O=C(NC1=NC(=O)C(c2cccc([N+](=O)[O-])c2)S1)c1ccc2cccnc2c1O (centres unmarked) |

same assay, conditions: Table 14; read-out: IC50

| Compound | IC50 [µM] |
| --- | --- |
| O=C(N[C@H]1CC[C@H](OC(=O)c2ccc3cccnc3c2O)CC1)c1ccc2cccnc2c1O | 4 |
| O=C(c1ccc2cccnc2c1O)N1CCN(c2ccc(Cl)c(Cl)c2)CC1 | 14 |
| O=C(NCc1cc(Cl)cc(Cl)c1)c1ccc2cccnc2c1O | 27 |
| O=C(NC(CO)C(O)c1ccccc1)c1ccc2cccnc2c1O (centres unmarked) | 14 |
| CCCCCCNC(=O)c1ccc2cccnc2c1O | 27 |

Second part, the compound after the results:

| IC50 [µM] | Compound |
| --- | --- |
| 28 | O=C(NCc1ccc(F)cc1Cl)c1ccc2cccnc2c1O |
| 42 | O=C(NCc1ccc(F)c(F)c1)c1ccc2cccnc2c1O |
| 29 | O=C(NCCOc1ccccc1)c1ccc2cccnc2c1O |
| 30 | O=C(NCc1c(F)cccc1Cl)c1ccc2cccnc2c1O |

same assay, conditions: pol type CMV; Table 1; read-out: CMV pol Assay IC50

| IC50 [µM] | Compound |
| --- | --- |
| 23.4 | O=C(Nc1nnc(-c2ccc(Cl)cc2)s1)c1ccc2cccnc2c1O [Example 14, N-[5-(4-Chlorophenyl)-1,3,4-thiadiazol-2-yl]-8-hydroxy-7-quinolinecarboxamide] |

same assay, conditions: pol type CMV; Table 2; read-out: IC50

| IC50 | Compound |
| --- | --- |
| 8.6 µM and 4.5 µM | O=S(=O)(NCc1ccccc1)c1cc(Cl)c2cccnc2c1O [Example 22, 5-Chloro-8-hydrxoy-N-(phenylmehtyl)-7-quinolinesulfonamide] |
